Converted amounts (≈) assume the structure as drawn.
Assays:
[1] = test system: E. faecalis and E. faecium; assay: MIC broth microdilution, summary over enterococci; assay type: cell-based
Method: (§1) Twenty-four test agents were shipped to Micromyx and stored at −20° C. until assayed. The compounds were dissolved in 100% DMSO at 6.46 mg/mL prior to testing. Comparator drugs were supplied by Micromyx and were handled as described below:
(§2) The test organisms for the assay were recent clinical isolates or reference strains acquired from the American Type Culture Collection (ATCC; Manassas, Va.). Upon receipt, the isolates were streaked onto Trypticase Soy Agar II+5% sheep blood (TSAB). Colonies were harvested from the plates and a cell suspension was prepared in Trypticase Soy Broth containing cryoprotectant. Aliquots were then frozen at −80° C. Prior to the assay, the frozen seeds of all bacterial isolates to be tested were thawed and streaked for isolation onto TSAB (BD/BBL, Sparks, Md.; Lot No. 9011894), and were incubated overnight at 35° C.
(§3) The test medium for all isolates was cation-adjusted Mueller Hinton broth (CAMHB; BD/BBL; Lot No. 8190586). CAMHB (Cation Adjusted Mueller Hinton Broth) was supplemented with 3% (v/v) lysed horse blood (LHB; Hemostat, Dixon, Calif.; Lot No. 474990) for the testing of streptococci.
(§4) MIC values were determined using a broth microdilution method as recommended by CLSI. Automated liquid handlers (Multidrop 384, Labsystems, Helsinki, Finland; Biomek 2000 and Biomek F/X, Beckman Coulter, Fullerton Calif.) were used to conduct serial dilutions and make liquid transfers.
(§5) The wells of standard 96-well microdilution plates (Costar 3795, Corning Inc., Corning, N.Y.) were filled with 150 μL of the appropriate diluent in columns 2-12 on the Multidrop 384 (DMSO for the thiostrepton analogs, deionized H2O for vancomycin and ceftazidime). These plates were used to prepare the drug “mother plate” which provided the serial drug dilutions for the replicate “daughter plates”. The compounds (300 μL) were dispensed at 101× the highest concentration to be tested into the appropriate row of the “mother plate”. The Biomek 2000 was used to transfer 150 μL of each stock solution from the wells in Column 1 of the mother plate to make ten subsequent 2-fold serial dilutions. The wells of Column 12 contained no drug and served as the organism growth control wells. The daughter plates were loaded with 190 μL of test medium using the Multidrop 384.
(§6) The daughter plates were prepared on the Biomek F/X instrument which transferred […] of drug solution from each well of the mother plate to each corresponding well of each daughter plate in a single step. The wells of the daughter plates ultimately contained 190 μL of media, 2 μL of drug solution, and 10 μL of inoculum prepared as described below. The final concentration of DMSO (if used as a solvent) in the test well was 1%.
(§7) A standardized inoculum of each organism was prepared per CLSI methods. A suspension of organisms from a fresh plate was prepared in CAMHB to equal the turbidity of a 0.5 McFarland standard. The suspensions were diluted 1:20 in CAMHB, or in the case of streptococci CAMHB with LHB. The inoculum for each organism was dispensed into sterile reservoirs divided by length (Beckman Coulter), and the Biomek 2000 was used to inoculate the plates. Daughter plates were placed on the Biomek 2000 work surface reversed so that inoculation took place from low to high drug concentration. The Biomek 2000 delivered 10 μL of standardized inoculum into each well. These dilutions yielded a final cell concentration in the daughter plates of approximately 5.0×10^5 CFU/mL.
(§8) Plates were stacked 3 high, covered with a lid on the top plate, placed in plastic bags, and incubated at 35° C. for 16-20 hr for all organisms except streptococci which were incubated for 20-24 hr. Following incubation, the microplates were removed from the incubator and viewed from the bottom using a plate viewer. The MIC was read and recorded as the lowest concentration of drug that inhibited visible growth of the organism. […]

Gram-positive cocci = assay: MIC broth microdilution, overall summary; assay type: cell-based; conditions: summary of MIC testing
Method: as §1, §2, §3, §4, §5
The daughter plates were prepared on the Biomek F/X instrument which transferred […] of drug solution from each well of the mother plate to each corresponding well of each daughter plate in a single step. […]
as §8, with “Following incubation, the microplates were removed from the incubator and viewed from the bottom using a plate viewer.” left out

[2] = Un-inoculated solubility control plate (drug precipitation); assay type: physicochemical
[3] = Aqueous solubility analysis in MOPS buffer; assay type: physicochemical; conditions: after 24 hours in 10 mM aqueous MOPS buffer
Method: A 2 dram vial was loaded with ˜0.5 mg of a thiostrepton derivative and suspended in ˜4 mL of aqueous 10 mM MOPS buffer (pKa 7.2). The suspension was stirred vigorously for 24 h to ensure equilibration, then filtered through a […] centrifuge filtration unit. A 3.0 mL aliquot was concentrated, and the dried residue was diluted with 0.30 mL of 1:1 1,4-dioxane/H2O (10× original concentration necessitated by detection limits). The total UV absorbance (200-300 nm) was measured in triplicate by UPLC runs with a photodiode array detector. A calibration curve for each compound was created using data points from 3 trials each of concentrations in 1:1 1,4-dioxane/H2O ranging from […]. These concentrations were plotted against their respective average absorbances. The experimental concentration of each compound was calculated by dividing the found μg/mL value by the residue concentration factor of 10 to yield the actual solubility value.

[4] = test system: E. faecalis ATCC 29212 VSE; assay: MIC broth microdilution; assay type: cell-based; conditions: Enterococcus faecalis, ATCC29212
Method: as §1, §2, §3, §4, §5, §6, §7, §8

E. coli ATCC 25922 = assay: MIC broth microdilution; assay type: cell-based
Method: as §1, §2, §3, §4, §5, §6, §7, §8

S. pyogenes ATCC 19615 = assay: MIC broth microdilution; assay type: cell-based; conditions: Streptococcus pyogenes, ATCC19615, 20 h
Method: as §1, §2, §3, §4, §5, §6, §7, §8

E. faecalis MMX 486 VRE = assay: MIC broth microdilution; assay type: cell-based; conditions: Enterococcus faecalis, VRE
Method: as §1, §2, §3, §4, §5, §6, §7, §8

[5] = test system: S. pneumoniae ATCC 49619 PISP; assay: MIC broth microdilution; assay type: cell-based; conditions: Streptococcus pneumoniae, ATCC49619, 20 h
Method: as §1, §2, §3, §4, §5, §6, §7, §8

S. aureus MMX 8088 MRSA = assay: MIC broth microdilution; assay type: cell-based; conditions: Staphylococcus aureus, MRSA
Method: as §1, §2, §3, §4, §5, §6, §7, §8

E. faecium MMX 708 VSE = assay: MIC broth microdilution; assay type: cell-based; conditions: Enterococcus faecium, MMX708VSE
Method: as §1, §2, §3, §4, §5, §6, §7, §8

E. faecium MMX 485 VRE = assay: MIC broth microdilution; assay type: cell-based; conditions: Enterococcus faecium, VRE
Method: as §1, §2, §3, §4, §5, §6, §7, §8

[6] = test system: S. aureus ATCC 29213 MSSA; assay: MIC broth microdilution; assay type: cell-based; conditions: Staphylococcus aureus
Method: as §1, §2, §3, §4, §5, §6, §7, §8

S. aureus isolates = assay: MIC broth microdilution, S. aureus isolates; assay type: cell-based
Method: as §1, §2, §3, §4, §5, §6, §7, §8

[7] = test system: S. pneumoniae and S. pyogenes isolates; assay: MIC broth microdilution, summary over streptococci; assay type: cell-based; conditions: read-out: MIC values against S. pneumoniae and S. pyogenes isolates
Method: as §1, §2
The test medium for all isolates was cation-adjusted Mueller Hinton broth (CAMHB; BD/BBL; Lot No. 8190586). […]
MIC values were determined using a broth microdilution method as recommended by CLSI. […]
as §8, with “Following incubation, the microplates were removed from the incubator and viewed from the bottom using a plate viewer.” left out

[8] = test system: S. aureus ATCC 29213 MSSA; conditions: range in parentheses; cited from earlier work
[9] = test system: E. faecalis ATCC 29212 VSE; conditions: range in parentheses; cited from earlier work
[10] = test system: S. pneumoniae ATCC 49619 PISP; conditions: range in parentheses; cited from earlier work

For `C=C(NC(=O)C(=C)NC(=O)c1csc(C2=N[C@@H]3c4csc(n4)[C@H]4NC(=O)c5csc(n5)[C@H]([C@](C)(O)[C@@H](C)O)NC(=O)[C@H]5CSC(=N5)/C(=C/C)NC(=O)[C@H]([C@@H](C)O)NC(=O)c5csc(n5)[C@]3(CC2)NC(=O)[C@H](C)NC(=O)C(=C)NC(=O)[C@H](C)NC(=O)[C@H]([C@@H](C)CC)N[C@@H]2C=Cc3c([C@H](C)O)cc(nc3[C@H]2O)C(=O)O[C@@H]4C)n1)C(N)=O` [Thiostrepton], the “VRE MIC values relative to VSE MIC values” ([1]; impact of vancomycin resistance among enterococci) was “comparable”, the MIC ([1]; read-out: MIC values against E. faecalis and E. faecium) was 0.06 to 0.12 µg/mL (≈ 0.036 to 0.0721 µM) and the “Activity among the evaluated analogs / against evaluated Gram-positive cocci (summary in words)” value (Gram-positive cocci) was “potent activity”. For the same molecule, the “Precipitation in CAMHB” value ([2]; at 64 μg/mL in CAMHB) was “distinct precipitation”, the “Precipitation in CAMHB in LHB” value ([2]; at 64 μg/mL in CAMHB in LHB) was “distinct precipitation” and the “Solubility pH 7.2” value [3] was 3.0 (±0.2) μg/mL. The MIC [4] was 0.12 µg/mL (≈ 0.0721 µM), the MIC (E. coli ATCC 25922; E. coli ATCC 25922, CAMHB) was >64 µg/mL and the MIC (E. coli ATCC 25922; Escherichia coli, ATCC25922) was > 64 µg/mL. The MIC (S. pyogenes ATCC 19615) was < 0.001 µg/mL, the MIC (E. faecalis MMX 486 VRE) was 0.12 µg/mL (≈ 0.0721 µM) and the MIC [5] was < 0.001 µg/mL. The MIC (S. aureus MMX 8088 MRSA) was 0.12 µg/mL (≈ 0.0721 µM), the MIC (E. faecium MMX 708 VSE) was 0.12 µg/mL (≈ 0.0721 µM) and the MIC (E. faecium MMX 485 VRE) was 0.06 µg/mL (≈ 0.036 µM). The MIC [6] was 0.06 µg/mL (≈ 0.036 µM), the MIC (S. aureus isolates; Staphylococcus aureus, read-out: MIC values against S. aureus isolates) was 0.06 to 0.12 µg/mL (≈ 0.036 to 0.0721 µM) and the “MIC values against MRSA relative to MSSA” value (S. aureus isolates; identical or within 2-fold, impact of methicillin resistance) was ≤ 2 fold. The MIC [7] was ≤ 0.001 µg/mL.
In the case of `CN[C@H](CC(C)C)C(=O)N[C@H]1C(=O)N[C@@H](CC(N)=O)C(=O)N[C@H]2C(=O)N[C@H]3C(=O)N[C@H](C(=O)N[C@H](C(=O)O)c4cc(O)cc(O)c4-c4cc3ccc4O)[C@H](O)c3ccc(c(Cl)c3)Oc3cc2cc(c3O[C@@H]2O[C@H](CO)[C@@H](O)[C@H](O)[C@H]2O[C@H]2C[C@](C)(N)[C@H](O)[C@H](C)O2)Oc2ccc(cc2Cl)[C@H]1O` [Vancomycin, reference compound], the “CLSI quality control range (MIC)” value [8] is listed as 0.5 to 2 µg/mL, the “CLSI quality control range (MIC)” value [9] is listed as 1 to 4 µg/mL and the MIC [4] is listed as 2 µg/mL (≈ 1.38 µM). The MIC (E. coli ATCC 25922; Escherichia coli, ATCC25922) was > 64 µg/mL, the MIC (S. pyogenes ATCC 19615) was 0.25 µg/mL (≈ 0.173 µM) and the MIC (E. faecalis MMX 486 VRE) was > 32 µg/mL. The MIC [5] was 0.12 µg/mL (≈ 0.0828 µM), the MIC (S. aureus MMX 8088 MRSA) was 1 µg/mL (≈ 0.69 µM) and the MIC (E. faecium MMX 708 VSE) was 0.25 µg/mL (≈ 0.173 µM). The MIC (E. faecium MMX 485 VRE) was > 32 µg/mL, the MIC [6] was 1 µg/mL (≈ 0.69 µM) and the “CLSI quality control range (MIC)” value [10] was 0.12 to 0.5 µg/mL.
